Experimental data taken from ChEMBL document CHEMBL4330097 (J Med Chem, 2019).
Converted amounts (≈) assume the structure as drawn.

Tests used:
[1] = Lipophilicity, log D of the compound in acetonitrile/water at 1:1 ratio at pH 7.5 by RP-HPLC analysis; format: physicochemical; settings: acetonitrile/water 1:1 (RP-HPLC)
[2] = Aqueous solubility of the compound in DMSO at 6.5 after 24 hrs by HPLC-MS/MS analysis; format: physicochemical; settings: aqueous medium with DMSO, pH 6.5
[3] = Chemical stability of the compound assessed as degradation rate at pH 1 to 10 after 24 hrs by HPLC-UV analysis; format: physicochemical; settings: buffer, pH 1, 24 h
[4] = Apparent permeability across apical to basolateral side in human Caco2 cells at 2 uM after 2 hrs by LC-MS/MS analysis; format: ADME, cell-based; settings: Caco-2
[5] = Apparent permeability across basolateral to apical side in human Caco2 cells at 2 uM after 2 hrs by LC-MS/MS analysis; format: ADME, cell-based; settings: Caco-2
[6] = Clearance in human liver microsomes at 1 uM up 60 mins in presence of NADP and glucose-6-phosphate by LC-MS/MS analysis; format: ADME, Microsome; settings: 1 h
[7] = Maximal oral bioavailability in human; format: ADME, organism-based; settings: in vivo
[8] = Clearance in Han/Wistar rat hepatocytes at 1 uM up 90 mins by HPLC-MS/MS analysis; format: ADME, cell-based, Hepatocyte
[9] = Maximal oral bioavailability in Han/Wistar rat; format: ADME, organism-based; settings: in vivo

chromatographic logD [1]: 2.4
solubility at 24 h [2]: 218 µg/mL (≈ 423 µM)
Stability [3]: Stable
Papp A→B at 2 h, 2 µM [4]: 18.4 ×10⁻⁶ cm/s
Papp B→A at 2 h, 2 µM [5]: 10.7 ×10⁻⁶ cm/s
CLH [6]: 13 mL/min/kg
Fmax [7]: 38%
CLH [8]: 61.7 mL/min/kg
Fmax [9]: 13%
SMILES: CN1CCN(c2cnc3c(C4CCN(C(=O)c5ccc(OC(F)(F)F)cc5N)CC4)ncnc3c2)CC1 [BAY-885]
